Measured values published in patent US20130149331A1, “RHAMNOSE AND FORSSMAN CONJUGATED IMMUNOGENIC AGENTS” (priority 2011, published 2013).

Test system: anti-Rha antibodies in normal human serum
Assay: Competitive ELISA assay with free monosaccharides, BSA-R1 immobilized
Format: binding
Settings: free monosaccharide 200 mM to 12.5 mM; human serum 1:2000; anti-human IgG detection
Protocol: Competitive ELISA assay. To further verify the specific antibody against Rha epitopes, inhibition ELISA was performed by immobilizing Rha conjugated BSA (BSA-R1) (10 μg ml^−1) on the 96-well plate, and free D-mannose (Man), D-glucose (Glc), N-Acetyl-Dglucosamine (GlcNAc), D-xylose (Xyl), L-fucose (Fuc), N-Acetyl-D-galactosamine (GalNAc), D-galactose (Gal) and L-rhamnose (Rha) were used as competing antigens (2-fold dilutions from 200 mM to 12.5 mM). After coated with BSA-R1 at 4° C. overnight, the solution was depleted and washed by PBST for three times (three minutes each time). Then, the plate was blocked with 5% (w/v) non-fat milk (PBST) in RT for 1.5 h, and rinsed by PBST once. Normal human serum diluted (1:2000) previously, containing different free monosaccharide at different concentration, was added into the 96-well plate with 0.1 mL per well. After 2 h incubation, the plate was rinsed by PBST 3 times. Then 0.1 mL Horseradish Peroxidase (HRP)-conjugated antihuman IgG antibody (1:3000) was added into each well and stayed in RT for 1 h. Finally, after the plates were washed, enzyme substrate tetramethylbenzidine (TMB) was added and allowed to react for 10-20 min before the enzymatic reaction was terminated by adding 1N HCl and the absorbance was read at wavelength of 450 nm in a FlexStation® 3 Microplate Reader (Molecular devices).

C[C@H](O)[C@H](O)[C@@H](O)[C@@H](O)C=O [Rha, L-rhamnose]
competition for antibodies in human serum: pulled down the antibodies
